Test results as given in patent publication US20230105108A1, “COMPOUNDS FOR THE TREATMENT OF BACTERIAL INFECTIONS AND POTENTIATION OF ANTIBIOTICS” (GEORGIA STATE UNIVERSITY RESEARCH FOUNDATION, INC., priority 2019, published 2023).
Structures can show the parent of a compound that is named as a salt.

Columns and labels:
[1] = tested on: E. coli expressing mcr-1; experiment: Ex vivo skin burn infection model, mcr-1 positive E. coli; details: human skin burn, hypromellose gel; 3‰ (w/w)
Method: To achieve topical application, compounds were formulated as hypromellose gel. […] After that, skin was loaded with hypromellose gel with different antibiotics and cultured at 37° C. for 24 hours. After 24 hours incubation, the skin sample was homogenized and the supernatants were serially diluted and plated on agar plates, from which bacterial counts on the skin was calculated. […] 1‰ polymyxin B hypromellose gel was used as positive control.

[2] = tested on: E. coli; experiment: Lysozyme assay (outer membrane disruption); type: cell-based; details: 50 μg/ml lysozyme, 25 μg/ml sensitizer, 10 min
Method: Lysozyme assay to evaluate the disruption of Gram-negative bacteria out membrane by bacterial sensitizers. Lysozyme assay was performed based on literature reported method. E. coli was cultured in Mueller Hinton II cation-adjusted broth for overnight, centrifuged at 3000 g for 10 min, washed with HEPES buffer (pH=7.2) and then centrifuged again to obtain bacteria pallet. The pallet was then gently resuspended in HEPES buffer with 5 mM NaCN to obtain an E. coli suspension with OD600 between 0.8˜1.0. On a 96-well plate, each well was supplied with 100 μl lysozyme solution (100 μg/ml) containing 50 or 100 μg/ml bacterial sensitizers in HEPES buffer. To each well was added 100 μl E. coli suspension. The final concentration of lysozyme was 50 μg/ml. The plate was incubated at room temperature for 10 min and the OD600 was recorded. E. coli was also incubated with bacterial sensitizers in the absence of lysozyme to test if bacterial sensitizers would directly induce bacterial lysis. E. coli that was incubated with lysozyme alone or E. coli without any treatment were also used as negative control.

[3] = tested on: mcr-1 over-expressing E. coli strains; experiment: microbe, parasite or virus in culture; type: cell-based
[4] = tested on: E. coli (ATCC 25922); experiment: MIC determination, sensitization fold and FIC index on E. coli; type: cell-based
Summary of the method: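 MICs read by OD600 as >90% growth inhibition after two-fold rifampicin dilutions, 5×10^5 CFU/ml E. coli, 24 h, 37 °C, shaken, cation-adjusted Mueller Hinton II broth.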

[5] = tested on: NDM-1 expressing E. coli strain; experiment: microbe, parasite or virus in culture; type: cell-based
[6] = tested on: A. baumannii (ATCC 17978); experiment: MIC, sensitization fold and FIC index on A. baumannii; type: cell-based
[7] = tested on: MRSA and B. subtilis; experiment: Composition of mixed MRSA and B. subtilis under antibiotic pressure; type: cell-based; details: 8 ng/ml trovafloxacin and 1.5 μg/ml MD-108
Method: (§1) FIG. 11 contains graphs showing that MD-108 can change the composition between MRSA and E. coli (Panel A) or MRSA and B. subtilis (Panel B) when the bacteria strains are under the same antibiotic pressure.
(§2) As a proof of concept, the relative ratio of E. coli and MRSA or B. subtilis and MRSA was measured with and without MD-108 (FIGS. 11A and B). […] When supplied with 1.5 μg/ml MD-108 and 8 ng/ml trovafloxacin, the MRSA inhibition was achieved, leaving E. coli as the dominant species (89% of the bacteria population).

[8] = Cytotoxicity on mammalian cells (CCK-8), NIH3T3; type: cell-based; details: mouse, NIH3T3 cells, 3T3 cell line
Summary of the method: (§3)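 Cells seeded a day ahead to ~80% confluency, exposed to varied compound concentrations for 24 h at 37° C, 5% CO2. CCK-8 added for a further 2 h and OD 450 nm read; viability expressed as percent of untreated control.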

[9] = tested on: B. subtilis; experiment: MIC determination and sensitization fold on B. subtilis; type: cell-based; details: B. subtilis
[10] = tested on: MRSA (ATCC 33592); experiment: MIC determination and sensitization fold on MRSA; type: cell-based, methicillin-resistant Staphylococcus aureus; details: MRSA; rifampicin; compound at 3 μM
[11] = tested on: M. smegmatis; experiment: MIC on mycobacteria; type: cell-based, Mycobacterium smegmatis; details: Mycolicibacterium smegmatis, read-out: MIC on mycobacteria
[12] = tested on: MRSA and E. coli; experiment: Composition of mixed MRSA and E. coli under antibiotic pressure; type: cell-based; details: 1.5 μg/ml MD-108 and 8 ng/ml trovafloxacin
Method: as §1, §2

[13] = tested on: HEK293 cells; experiment: Cytotoxicity on mammalian cells (CCK-8), HEK293; type: cell-based; details: Homo sapiens, HEK293
Summary of the method: as §3

[14] = Cytotoxicity on mammalian cells (CCK-8), HEK293; type: cell-based; details: human, HEK293 cells; HEK293 cell line; 24 h
Summary of the method: as §3

[15] = Cytotoxicity in H9c2 cells (CCK-8); type: cell-based; details: rat, H9c2 cells; H9c2 cell line
Summary of the method: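 H9c2 cells were grown in DMEM with 10% FBS, seeded the day before, and exposed to a range of di-amidine concentrations for 24 h at 37 °C, 5% CO2. Viability was read by CCK-8 after 3 h at 37 °C as absorbance at 450 nm.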

Compound: Polymyxin B
- effect on bacterial load as compared with vehicle group [1]: only had minor effects
- bacterial lysis by lysozyme in the presence of sensitizer [2]: led to bacterial lysis
- MIC of AB with 5 μg/ml MD-124 ([3]; mcr-1 over-expression E. coli strain (MIC of polymyxin B 30 μg/ml)): 1 µg/mL
- Sensitization fold with 5 μg/ml MD-124 ([3]; mcr-1 over-expression E. coli strain towards the antibiotic): 30 fold
- MIC of Rif polymyxin B ([3]; strain mcr-1 A): 10 µg/mL
- MIC of Rif polymyxin B ([3]; strain mcr-1 B): 30 µg/mL
- MIC of AB only ([4]; E. coli (wild type), antibiotic alone): 1.2 µg/mL
- Sensitization fold ([4]; E. coli towards the antibiotic, MD-124 5 μg/ml): 32 fold
- MIC of AB with MD-124 ([4]; E. coli, MD-124 concentration 5 μg/ml): 0.04 µg/mL
- MIC of AB with 5 μg/ml MD-124 ([5]; NDM-1 expressing E. coli): 0.32 µg/mL
- Sensitization fold with 5 μg/ml MD-124 ([5]; NDM-1 expressing E. coli towards the antibiotic): 8 fold
- MFC of AB only ([5]; NDM-1 expressing E. coli, antibiotic alone): 2.5 µg/mL
- MIC of AB with 5 μg/ml MD-124 ([6]; A. baumannii): 0.04 µg/mL
- Sensitization fold with 5 μg/ml MD-124 ([6]; A. baumannii towards the antibiotic): 4 fold
- MFC of AB only ([6]; A. baumannii, antibiotic alone): 1.6 µg/mL

Compound: Cc1cc(CCc2ccc(C(=N)N)cc2)cc(CCc2ccc(C(=N)N)cc2)c1 [MD-108, 4,4′-((5-methyl-1,3-phenylene)bis(ethane-2,1-diyl))dibenzimidamide dihydrochloride]
- B. subtilis share of the composition [7]: 99.5%
- CC50 at 24 h [8]: 50 µM
- Sensitization fold ([9]; erythromycin, compound at 6 μM): 32-fold at 6 μM.
- MIC ([9]; Bacillus subtilis, 24 h, compound alone, read-out: MIC): 25 µM
- Sensitization fold ([4]; 10 μM compound, rifampicin as the antibiotic (Table 6)): 16 fold
- Sensitization fold ([4]; E. coli, rifampicin, compound at 10 μM): 16-fold at 10 μM.
- Sensitization fold ([4]; E. coli, rifampicin, compound at 25 μM): 32-fold at 25 μM;
- MIC ([4]; Escherichia coli, ATCC25922, 24 h): 100 µM
- Sensitization fold [10]: 16-fold at 3 μM
- MIC [11]: 6 to 12 µM
- E. coli share of the bacteria population [12]: 89%
- IC50 [13]: 50 µM
- CC50 at 24 h [14]: 50 µM
- CC50 at 24 h [15]: 12.5 µM
